Laboratory results reported in PubChem BioAssay (NCI).
“And” between values parts separate entries of the source, which are not always exact repeats. Equal values may be shown once.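 Results reflect a 48-hour exposure of cells in 96-well plates to compound at five concentrations. GI50 is the concentration that inhibits growth by half. TGI denotes the concentration required for complete inhibition of growth.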

Experiments:
Experiment in all cases: NCI tumour cell line growth inhibition, 48 h
LXFL 529 NSCLC = tested on: LXFL 529 NSCLC
DMS 273 small cell lung = tested on: DMS 273 small cell lung
DLD-1 colon = tested on: DLD-1 colon
RXF-631 renal = tested on: RXF-631 renal
M19-MEL melanoma = tested on: M19-MEL melanoma
KM20L2 colon = tested on: KM20L2 colon
XF 498 CNS = tested on: XF 498 CNS
HOP-18 NSCLC = tested on: HOP-18 NSCLC
P388/ADR leukemia = tested on: P388/ADR leukemia
P388 leukemia = tested on: P388 leukemia
SN12K1 renal = tested on: SN12K1 renal
MDA-N = tested on: MDA-N

| Structure (SMILES) | TGI (LXFL 529 NSCLC) | TGI (DMS 273 small cell lung) | TGI (DLD-1 colon) | TGI (RXF-631 renal) | TGI (M19-MEL melanoma) | TGI (KM20L2 colon) | TGI (XF 498 CNS) | TGI (HOP-18 NSCLC) | TGI (MDA-N) | further results |
| --- | --- | --- | --- | --- | --- | --- | --- | --- | --- | --- |
| COC(=O)C#CCC1CCCC1C1SCCS1 (stereo not drawn) | > 100 µM | > 100 µM | > 100 µM | > 100 µM | > 100 µM | > 100 µM | > 100 µM | > 100 µM | – | – |
| O=C(COc1ccc(Cl)cc1)N1CCN(C(=O)COc2ccc(Cl)cc2)c2ccccc21 | > 100 µM | > 100 µM | > 100 µM | – | > 100 µM | > 100 µM | > 100 µM | > 100 µM | – | – |
| COc1cccc2c1[C@H]1CO[C@H]3C4C[C@H](C(=O)O)C([C@@H](C2)N13)N4C (stereo partly drawn) | 4.98 µM | 1.31 µM | 7.81 µM and 17.4 µM | – | 9.62 µM and 1.32 µM | 7.84 µM | 4.19 µM and 1.5 µM | > 27.5 µM | 0.406 µM | TGI (P388/ADR leukemia): 0.652 µM; GI50 (DMS 273 small cell lung): 0.516 µM; TGI (P388 leukemia): 5.25 µM; GI50 (DLD-1 colon): 0.452 µM; GI50 (M19-MEL melanoma): 0.611 µM; GI50 (XF 498 CNS): 0.632 µM; GI50 (HOP-18 NSCLC): 1.13 µM; TGI (SN12K1 renal): 8.4 µM |
| NCCC(=O)NC(Cc1cnc[nH]1)C(=O)O (stereo not drawn) | – | – | – | – | – | – | – | – | > 100 µM | – |
| O=C(NCC(=O)N1CCOC1=O)OCc1ccccc1 | – | > 100 µM | > 100 µM | – | > 100 µM | > 100 µM | > 100 µM | > 100 µM | – | – |
| CCCCCCCCCCCCCP(=O)(NCC(N)=O)OCC (stereo not drawn) | 30.8 µM | – | 32.7 µM | 35.5 µM | 35.2 µM | 32.7 µM | 34.9 µM | 14.8 µM | – | – |
| COc1cc2c(cc1-c1coc3cc(OCC=C(C)C)ccc3c1=O)OCO2 | – | – | – | – | – | – | – | – | 28.5 µM | – |
| O=C(O)[C@@H](NS(=O)(=O)c1ccc2ccccc2c1)c1ccccc1 | > 100 µM | > 100 µM | > 100 µM | > 100 µM | > 100 µM | > 100 µM | > 100 µM | > 100 µM | – | – |
| O=C(CCc1nc(=S)[nH][nH]1)Nc1cccc(C(F)(F)F)c1 | > 100 µM | > 100 µM | > 100 µM | – | – | > 100 µM | > 100 µM | > 100 µM | – | – |
| COc1cc2c(c(OC)c1OC)-c1c(cc3c(c1OC)OCO3)CC(C)C(C)(O)C2OC(=O)c1ccccc1 (stereo not drawn) | – | – | – | – | – | – | – | – | > 100 µM | – |
| N.N.N.N.N.O=S(=O)([O-])C(F)(F)F.O=S(=O)([O-])C(F)(F)F.[Os+8] | 23.8 µM | – | – | – | – | 45.3 µM | – | – | – | GI50 (LXFL 529 NSCLC): 9.12 µM; GI50 (KM20L2 colon): 20.7 µM |
| O=C(O)COc1ccc(C(=O)/C(SS/C(C(=O)c2ccc(OCC(=O)O)c(Cl)c2Cl)=C2\C=C(c3ccc(Br)cc3)SS2)=C2/C=C(c3ccc(Br)cc3)SS2)c(Cl)c1Cl | 8.98 µM | > 100 µM | > 63.2 µM | – | > 100 µM | > 100 µM | 9.89 µM | 39.9 µM | – | – |
| O=NN(CCCl)C(=O)NC1CCC(=O)NC1=O (stereo not drawn) | – | 634 µM | 1050 µM | – | 972 µM | > 1250 µM | 265 µM | 1070 µM | 791 µM | TGI (P388/ADR leukemia): 399 µM; TGI (P388 leukemia): 256 µM; TGI (SN12K1 renal): 348 µM |
| CC(=O)NNc1nc(C)c(C(=O)/C=C/c2ccc(/C=C/C(=O)c3sc(NNC(C)=O)nc3C)cc2)s1 | > 100 µM | > 100 µM | > 100 µM | > 100 µM | > 100 µM | – | > 100 µM | – | – | – |
| COC1(C)C(=O)N2C1N(C(=O)OCc1ccccc1)CC2(C)C (stereo not drawn) | > 100 µM | > 100 µM | > 100 µM | – | > 100 µM | > 100 µM | > 100 µM | – | – | – |
| Cc1cc(C)nc(NS(=O)(=O)c2ccc(NC(=O)c3cccn4c(=O)c5ccccc5nc34)cc2)n1 | > 100 µM | > 100 µM | > 100 µM | – | > 100 µM | > 100 µM | > 100 µM | – | – | – |
| O=[N+]([O-])c1ccc2c(Nc3ccccc3-c3ccccc3Nc3c4ccccc4nc4cc([N+](=O)[O-])ccc34)c3ccccc3nc2c1 | > 35.1 µM | > 82.9 µM | > 48.4 µM | > 82.9 µM | 19.8 µM | > 65 µM | 4.98 µM | > 100 µM | 3.29 µM | – |
| CCN(CC)C(=O)COc1cc2c(O)c3c(O)c(C)c4c(c13)C(=O)C(C)(OC=CC(OC)C(C)C(OC(C)=O)C(C)C(O)C(C)C(O)C(C)C=CC=C(C)C(=O)N2)O4 (stereo not drawn) | – | – | – | – | – | – | – | – | > 100 µM | – |
| CN1CCc2c1nc(-c1cccnc1)c1c2N(C)CC1 | > 100 µM | > 100 µM | > 100 µM | > 100 µM | > 100 µM | > 100 µM | > 100 µM | > 100 µM | – | – |

| Structure (SMILES) | TGI (LXFL 529 NSCLC) | TGI (DMS 273 small cell lung) | TGI (DLD-1 colon) | TGI (RXF-631 renal) | TGI (M19-MEL melanoma) | TGI (KM20L2 colon) | TGI (XF 498 CNS) | TGI (HOP-18 NSCLC) | TGI (MDA-N) | further results |
| --- | --- | --- | --- | --- | --- | --- | --- | --- | --- | --- |
| CCN(CC)CCCC(C)Nc1c(Sc2cnc3cc(Cl)ccc3c2NC(C)CCCN(CC)CC)cnc2cc(Cl)ccc12 (stereo not drawn) | 3.38 µM | 3.17 µM | 3.84 µM | 4.48 µM | 3.02 µM | 3.09 µM | – | 4.49 µM | – | – |
| COCCOCOC(C)(C)[C@H](CCOC(C)=O)O[Si](c1ccccc1)(c1ccccc1)C(C)(C)C | > 100 µM | 26.3 µM | > 100 µM | 43.1 µM | 43.2 µM | > 100 µM | – | > 100 µM | – | – |
| COc1cc(/C=C\c2ccncc2)cc(OC)c1OC | > 100 µM | > 100 µM | > 100 µM | > 100 µM | – | > 100 µM | > 100 µM | > 100 µM | – | – |
| COc1ccc(-c2onc(-c3c(C)cc(C)cc3C)c2C2=NCCN2)cc1 | > 100 µM | – | > 100 µM | > 100 µM | > 100 µM | > 100 µM | – | > 100 µM | – | – |
| O=C(N/C(=C\c1cc(Cl)ccc1Cl)c1nc2ccc(Cl)cc2[nH]1)c1ccccc1 | 28.1 µM | – | 26.7 µM | – | 30 µM | 32.2 µM | – | – | – | – |
| Clc1ccccc1NN(Cc1ccncc1)c1ccccc1Cl | – | – | – | – | – | – | – | – | 27.8 µM | – |
| CC(=O)[CH-]C(=O)Nc1ccccc1.CC(=O)[CH-]C(=O)Nc1ccccc1.CC[O-].CC[O-].[Ti+4] | – | – | > 100 µM | – | > 100 µM | > 100 µM | – | > 100 µM | – | GI50 (DLD-1 colon): > 100 µM; GI50 (M19-MEL melanoma): > 100 µM; GI50 (KM20L2 colon): > 100 µM; GI50 (HOP-18 NSCLC): > 100 µM |
| Cc1ccc(NC(=O)CC2SC(N)=NC2=O)cc1C (stereo not drawn) | > 100 µM | – | > 100 µM | > 100 µM | – | > 100 µM | > 100 µM | – | – | – |
| C#C[C@H]1CCCCCC1O (stereo partly drawn) | > 100 µM | > 100 µM | > 100 µM | > 100 µM | > 100 µM | > 100 µM | > 100 µM | > 100 µM | – | – |
| Cc1nc2c(sc(=S)n2-c2ccccc2)c2nc3ccccc3n12 | > 100 µM | > 100 µM | > 100 µM | > 100 µM | > 100 µM | – | – | > 100 µM | – | – |
| Nc1ncnc2c1nnn2C1C=C(CO)C(O)C1O (stereo not drawn) | > 100 µM | > 100 µM | > 92.6 µM | – | > 100 µM | > 100 µM | > 100 µM | > 100 µM | – | – |
| O=C1c2ccccc2C(=O)N1C1(C(=O)NC2(C(=O)O)CCCC2)CCCC1 | – | – | – | – | – | – | – | – | > 100 µM | – |
| COC/N=C(/N)NC#N | > 100 µM | 91.5 µM | > 100 µM | – | > 100 µM | > 100 µM | – | > 100 µM | – | – |
| NC(=O)C12CC3CC(CC(Br)(C3)C1)C2 | > 100 µM | > 100 µM | > 100 µM | > 100 µM | – | > 100 µM | > 100 µM | > 100 µM | – | – |
| Cn1nnc2c(C(N)=O)ncn2c1=O | > 100 µM | – | > 100 µM | – | > 100 µM | > 100 µM | > 100 µM | > 100 µM | > 100 µM | – |
| CC1(C)CC2=C(Sc3ccccc3N2)C(=O)C1C(=O)C(=O)Nc1cc(Cl)ccc1Cl (stereo not drawn) | – | – | – | – | – | – | – | – | > 100 µM | – |
| CC1=C(Cl)C[C@@H](/C(C)=C\Cl)O[C@@]1(O)C(Br)Br | – | – | – | – | – | – | – | – | 41.8 µM | – |
| CCC[CH2][Sn]([CH2]CCC)([O]C(=O)/C=C/c1ccccc1F)[O]C(=O)/C=C/c1ccccc1F | 0.304 µM | 2.93 µM | 1.5 µM | 0.972 µM | 2.78 µM | 2.64 µM | 0.892 µM | 2.98 µM | – | GI50 (LXFL 529 NSCLC): 0.131 µM; GI50 (DMS 273 small cell lung): 1.16 µM; GI50 (DLD-1 colon): 0.393 µM; GI50 (RXF-631 renal): 0.253 µM; GI50 (M19-MEL melanoma): 0.891 µM; GI50 (KM20L2 colon): 1.34 µM; GI50 (XF 498 CNS): 0.258 µM; GI50 (HOP-18 NSCLC): 1.62 µM |
